Data from US8017612B2, “Piperazine compound and use thereof as a HCV polymerase inhibitor” (priority 2006, dated 2011).
pIC50: −log10 of the molar value.

Assays:
[1] = target: T1, HCV polymerase (NS5B) type 1b (Hepatitis C virus genotype 1b, UniProt P26663); assay: Assay of enzyme (HCV polymerase) inhibitory activity, type 1b enzyme; type: biochemical, HCV BK strain (type 1b); settings: HCV polymerase inhibitory activity (IC50), 1b, type 1b enzyme 0.5 μg/ml, 25° C., 60 min
T1 construct: a region encoding NS5B (J Virol 1991 March, 65(3), 1105-13, 544 amino acids after deletion of 47 amino acids on the C-terminal); 6xHis (C); made in house; host or cells: Escherichia coli
Outline: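 IC50 derived from [3H]UTP incorporation into TCA-insoluble RNA, compared with and without test compound. Reaction (25 °C, 60 min, Tris pH 7.5, 5 mM MgCl2): E. coli-expressed 1b NS5B Δ47 with His tag at 0.5 μg/ml, 5 μg/ml run-off substrate RNA, ATP/GTP/CTP 50 μM, UTP 2 μM.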

[2] = target: T2, HCV polymerase (NS5B) type 1a (Hepatitis C virus genotype 1a, UniProt P26664); assay: Assay of enzyme (HCV polymerase) inhibitory activity, type 1a enzyme; type: biochemical, HCV type 1a (cloned from the blood of patients); settings: HCV polymerase inhibitory activity (IC50), 1a, type 1a enzyme 1.5 μg/ml, 25° C., 60 min
T2 construct: made in house; host or cells: Escherichia coli (by the 'similar method' of the 1b enzyme)
Outline: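 Reactions ran 60 min at 25° C in 20 mM Tris-HCl pH 7.5, 5 mM MgCl2, 50 mM NaCl, holding genotype 1a NS5B (1.5 μg/ml, Δ47 C-terminus, 6His), substrate RNA 5 μg/ml, UTP 2 μM with tritiated UTP and other NTPs 50 μM. IC50 derived from incorporated radiolabel in filter-trapped RNA relative to uninhibited reaction.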

SMILES	pIC50 [1]	pIC50 [2]
COC(=O)c1cc(S(=O)(=O)N2CCN(C(C)=O)C[C@@H]2C(=O)NCc2ccc(C(C)C)cc2)ccc1OC [Example 235, 5-[(R)-4-acetyl-2-(4-isopropyl-benzylcarbamoyl)-piperazine-1-sulfonyl]-2-methoxy-benzoic acid methyl ester]	< 6.00	< 6.00
CCc1cc(S(=O)(=O)N2CCN(C(C)=O)C[C@@H]2C(=O)NCc2ccc(C(C)C)cc2)ccc1OC [Example 236, (R)-4-acetyl-1-(3-ethyl-4-methoxy-benzenesulfonyl)-piperazine-2-carboxylic acid 4-isopropyl-benzylamide]	6.00 to 7.00	6.00 to 7.00
CC(=O)N1CCN(S(=O)(=O)c2ccc(CC(C)(C)C)cc2)[C@@H](C(=O)NCc2ccc(C(C)C)cc2)C1 [Example 237, (R)-4-acetyl-1-[4-(2,2-dimethyl-propyl)-benzenesulfonyl]-piperazine-2-carboxylic acid 4-isopropyl-benzylamide]	> 7.00	> 7.00
COC(=O)COc1ccc(S(=O)(=O)N2CCN(C(C)=O)C[C@@H]2C(=O)NCc2ccc(C(C)C)cc2)cc1 [Example 238, {4-[(R)-4-acetyl-2-(4-isopropyl-benzylcarbamoyl)-piperazine-1-sulfonyl]-phenoxy}-acetic acid methyl ester]	6.00 to 7.00	< 6.00
COc1ccc(S(=O)(=O)N2CCN(C(C)=O)C[C@@H]2C(=O)NCc2ccc(C(C)C)cc2)cc1C#N [Example 239, (R)-4-acetyl-1-(3-cyano-4-methoxy-benzenesulfonyl)-piperazine-2-carboxylic acid 4-isopropyl-benzylamide]	6.00 to 7.00	< 6.00
COc1ccc(S(=O)(=O)N2CCN(C(C)=O)C[C@@H]2C(=O)NCc2ccc(C(C)C)cc2)cc1C(C)(C)C [Example 240, (R)-4-acetyl-1-(3-tert-butyl-4-methoxy-benzenesulfonyl)-piperazine-2-carboxylic acid 4-isopropyl-benzylamide]	> 7.00	6.00 to 7.00
COc1ccc(S(=O)(=O)N2CCN(C(C)=O)C[C@@H]2C(=O)NCc2ccc(C(C)C)cc2)cc1C1CCCC1 [Example 241, (R)-4-acetyl-1-(3-cyclopentyl-4-methoxy-benzenesulfonyl)-piperazine-2-carboxylic acid 4-isopropyl-benzylamide]	6.00 to 7.00	6.00 to 7.00
CC(C)c1ccc(CNC(=O)[C@H]2CN(C(=O)Cn3nccn3)CCN2S(=O)(=O)c2ccc(C(F)(F)F)cc2)cc1 [Example 242, (R)-4-(2-[1,2,3]triazol-2-yl-acetyl)-1-(4-trifluoromethyl-benzenesulfonyl)-piperazine-2-carboxylic acid 4-isopropyl-benzylamide]	6.00 to 7.00	6.00 to 7.00
CC(C)c1ccc(CNC(=O)[C@H]2CN(C(=O)NCc3ccccc3)CCN2S(=O)(=O)c2ccc(C(F)(F)F)cc2)cc1 [Example 243, (R)-4-(4-trifluoromethyl-benzenesulfonyl)-piperazine-1,3-dicarboxylic acid 1-benzylamide 3-(4-isopropyl-benzylamide)]	< 6.00	< 6.00
CC(C)c1ccc(CNC(=O)[C@H]2CN(c3nc(C(=O)O)cs3)CCN2S(=O)(=O)c2ccc(C(F)(F)F)cc2)cc1 [Example 244, 2-[(R)-3-(4-isopropyl-benzylcarbamoyl)-4-(4-trifluoromethyl-benzenesulfonyl)-piperazin-1-yl]-thiazole-4-carboxylic acid]	6.00 to 7.00	6.00 to 7.00
CCOC(=O)COc1ccc(NC(=O)N2CCN(S(=O)(=O)c3ccc(C(F)(F)F)cc3)[C@@H](C(=O)NCc3ccc(C(C)C)cc3)C2)cc1 [Example 245, (4-{[(R)-3-(4-isopropyl-benzylcarbamoyl)-4-(4-trifluoromethyl-benzenesulfonyl)-piperazine-1-carbonyl]-amino}-phenoxy)-acetic acid ethyl ester]	6.00 to 7.00	< 6.00
CC(C)c1ccc(CNC(=O)[C@H]2CN(C(=O)Nc3ccc(OCC(=O)O)cc3)CCN2S(=O)(=O)c2ccc(C(F)(F)F)cc2)cc1 [Example 246, (4-{[(R)-3-(4-isopropyl-benzylcarbamoyl)-4-(4-trifluoromethyl-benzenesulfonyl)-piperazine-1-carbonyl]-amino}-phenoxy)-acetic acid]	6.00 to 7.00	< 6.00
CCCc1ccc(S(=O)(=O)N2CCN(C(C)=O)C[C@@H]2C(=O)NCc2ccc(CC)cc2)cc1 [Example 247, (R)-4-acetyl-1-(4-propyl-benzenesulfonyl)-piperazine-2-carboxylic acid 4-ethyl-benzylamide]	> 7.00	6.00 to 7.00
COc1ccc(S(=O)(=O)N2CCN(C(C)=O)C[C@@H]2C(=O)NCc2ccc(C(C)C)cc2)cc1C(=O)O [Example 248, 5-[(R)-4-acetyl-2-(4-isopropyl-benzylcarbamoyl)-piperazine-1-sulfonyl]-2-methoxy-benzoic acid]	6.00 to 7.00	< 6.00
CC(=O)N1CCN(S(=O)(=O)c2ccc(OCC(=O)O)cc2)[C@@H](C(=O)NCc2ccc(C(C)C)cc2)C1 [Example 249, {4-[(R)-4-acetyl-2-(4-isopropyl-benzylcarbamoyl)-piperazine-1-sulfonyl]-phenoxy}-acetic acid]	< 6.00	< 6.00
COC(=O)CCOc1ccc(S(=O)(=O)N2CCN(C(C)=O)C[C@@H]2C(=O)NCc2ccc(C(C)C)cc2)cc1 [Example 250, 3-{4-[(R)-4-acetyl-2-(4-isopropyl-benzylcarbamoyl)-piperazine-1-sulfonyl]-phenoxy}-propionic acid methyl ester]	6.00 to 7.00	6.00 to 7.00
CC(=O)N1CCN(S(=O)(=O)c2ccc(O)cc2)[C@@H](C(=O)NCc2ccc(C(C)C)cc2)C1 [Example 251, (R)-4-acetyl-1-(4-hydroxy-benzenesulfonyl)-piperazine-2-carboxylic acid 4-isopropyl-benzylamide]	< 6.00	< 6.00
COC(=O)CCC(=O)NCC(=O)N1CCN(S(=O)(=O)c2ccc(C(F)(F)F)cc2)[C@@H](C(=O)NCc2ccc(C(C)C)cc2)C1 [Example 252, N-{2-[(R)-3-(4-isopropyl-benzylcarbamoyl)-4-(4-trifluoromethyl-benzenesulfonyl)-piperazin-1-yl]-2-oxo-ethyl}-succinamic acid methyl ester]	6.00 to 7.00	6.00 to 7.00
CC(=O)N1CCN(S(=O)(=O)c2ccc(C(C)C)cc2)[C@@H](C(=O)NCc2ccc(C(C)(C)C)cc2)C1 [Example 253, (R)-4-acetyl-1-(4-isopropyl-benzenesulfonyl)-piperazine-2-carboxylic acid 4-tert-butyl-benzylamide]	> 7.00	> 7.00
COC(=O)c1sc(N2CCN(S(=O)(=O)c3ccc(C(F)(F)F)cc3)[C@@H](C(=O)NCc3ccc(C(C)C)cc3)C2)nc1C [Example 254, 2-[(R)-3-(4-isopropyl-benzylcarbamoyl)-4-(4-trifluoromethyl-benzenesulfonyl)-piperazin-1-yl]-4-methyl-thiazole-5-carboxylic acid methyl ester]	> 7.00	6.00 to 7.00
COC(=O)Cc1csc(N2CCN(S(=O)(=O)c3ccc(C(F)(F)F)cc3)[C@@H](C(=O)NCc3ccc(C(C)C)cc3)C2)n1 [Example 255, {2-[(R)-3-(4-isopropyl-benzylcarbamoyl)-4-(4-trifluoromethyl-benzenesulfonyl)-piperazin-1-yl]-thiazol-4-yl}-acetic acid methyl ester]	> 7.00	> 7.00
CCOC(=O)COc1cccc(NC(=O)N2CCN(S(=O)(=O)c3ccc(C(F)(F)F)cc3)[C@@H](C(=O)NCc3ccc(C(C)C)cc3)C2)c1 [Example 256, (3-{[(R)-3-(4-isopropyl-benzylcarbamoyl)-4-(4-trifluoromethyl-benzenesulfonyl)-piperazine-1-carbonyl]-amino}-phenoxy)-acetic acid ethyl ester]	6.00 to 7.00	6.00 to 7.00
CC(C)c1ccc(CNC(=O)[C@H]2CN(C(=O)Cn3cnnn3)CCN2S(=O)(=O)c2ccc(C(F)(F)F)cc2)cc1 [Example 257, (R)-4-(2-tetrazol-1-yl-acetyl)-1-(4-trifluoromethyl-benzenesulfonyl)-piperazine-2-carboxylic acid 4-isopropyl-benzylamide]	> 7.00	> 7.00
CC(C)c1ccc(CNC(=O)[C@H]2CN(C(=O)CC#N)CCN2S(=O)(=O)c2ccc(C(F)(F)F)cc2)cc1 [Example 258, (R)-4-(2-cyano-acetyl)-1-(4-trifluoromethyl-benzenesulfonyl)-piperazine-2-carboxylic acid 4-isopropyl-benzylamide]	> 7.00	> 7.00
CC(C)c1ccc(CNC(=O)[C@H]2CN(c3nc(CC(=O)O)cs3)CCN2S(=O)(=O)c2ccc(C(F)(F)F)cc2)cc1 [Example 259, {2-[(R)-3-(4-isopropyl-benzylcarbamoyl)-4-(4-trifluoromethyl-benzenesulfonyl)-piperazin-1-yl]-thiazol-4-yl}-acetic acid]	> 7.00	6.00 to 7.00
